Results taken from publication PMC9728511, “Direct formation and site-selective elaboration of methionine sulfoximine in polypeptides” (Chemical Science, 2022).

System: glutamine synthetase (GS)
Experiment: glutamine synthetase inhibition assay (glutamine synthetase activity assay kit, Abcam)
Format: biochemical
Conditions: for Inhibition (%) of glutamine synthetase, Assay 1: Table S4, assay 1 of 3; for Inhibition (%) of glutamine synthetase, Assay 1 / Inhibition (%) of glutamine synthetase, Assay 2 / Inhibition (%) of glutamine synthetase, Assay 3: 1 mM inhibitor final concn, enzyme pre-incubated with inhibitor 37 °C 10 min, colorimetric ADP detection, A570 (average of 3 readings), background subtracted, vs enzyme control; for Inhibition (%) of glutamine synthetase, Assay 1 / Inhibition (%) of glutamine synthetase, Assay 2 / Inhibition (%) of glutamine synthetase, Assay 3 / Average inhibition (%) of glutamine synthetase: reaction 37 °C 60 min; for Inhibition (%) of glutamine synthetase, Assay 2: Table S5, assay 2 of 3; for Inhibition (%) of glutamine synthetase, Assay 3: Table S6, assay 3 of 3; for Average inhibition (%) of glutamine synthetase: Table S7, average of assay 1, 2 and 3 (mean of 3 independent experiments), 1 mM inhibitor, pre-incubation 37 °C 10 min, A570; for inhibitory activity on glutamine synthetase compared with MSO: screen at 1 mM inhibitor concentration (Fig. 4), comparison in words
Method: Assays were performed at 1 mM inhibitor concentration using a glutamine synthetase activity assay kit (Abcam).
Procedure f or the glutamine synthetase inhibition assay (Figure 4)
In this assay, glutamine synthetase catalyzesthe transformation from g lutamate and ATP t o g lutamine and ADP. ADP in the subsequent reaction, in presence of ADP converter, ADP d eveloper and ADP pr obe , forms a colorimetric product that is measured at absorbance 570 nm.
1. Stock solutions of glutamine synthetase, ATP, ADP converter, and ADP developer were prepared according to the protocol by Abcam: https://www.abcam.com/ps/products/284/ab284572/documents/Glutamine-Synthetase- Activity-Assay- […]
GS assay buffer, glutamate, and ADP probe were used as supplied.
2. Glutamine synthetase (2 µL ) was pre- incubated with methionine sulfoximine (MSO) (2 µL, 10 mM, 1 mM final concn) and methionine sulfoximine peptides 1b -8b (2 µL, 10 mM, 1 mM final concn) at 37 °C for 10 min, protected from light. For enzyme control, GS assay buffer (2 µL ) was used instead of MSO or peptides 1b -8b. For background control, GS assay buffer (4 µL) without enzyme was used.
3. Substrate mix was prepared by mixing GS assay buffer (96 µL ), glutamate (24 µL ), and ATP (24 µL ).
The resulting substrate mix (12 µL) was added to each sample.
4. ADP reactio n mix was prepared by mixing GS assay buffer (42 µL), ADP probe (6 µL), ADP converter (6 µL), and ADP developer (6 µL ). The resulting ADP reaction mix (4 µL ) was added to each sample. The total reaction volume for each sample is 20 µL.
5. After incubation of the reaction mixture at 37 °C for 60 mi n , the absorbance at 570 nm (A570) was measured on a Thermo Scientific NanoDrop 2000c spectrophotometer. For each sample, A570 was measure […]
6. The background control reading was subtracted from test sample readings and enzyme control readings.
7. Inhibition of glutamine synthetase was det er mi ned by comparing A570 (test sample) and A570 ( enzyme
Percentage inhibition = A570 (enzyme control)−A570 (test sample)A570 (enzyme control) × 100%
8. The assay was repeated for 3 times and the percentage inhibition values are me a n ± S D of 3 independent

Row | Compound | Inhibition (%) of glutamine synthetase, Assay 1 [%] | Inhibition (%) of glutamine synthetase, Assay 2 [%] | Inhibition (%) of glutamine synthetase, Assay 3 [%] | Average inhibition (%) of glutamine synthetase [%] | inhibitory activity on glutamine synthetase compared with MSO
1 | Ac-VGMSWP-NH2 [4b] | 13.3 | 15.5 | 14.3 | 14.4 | –
2 | Ac-RPKPQQFFGLM-NH2 (substance P) [7b] | 1.7 | 3.1 | 3.7 | 2.8 | –
3 | Ac-FPQSGM-NH2 [5b] | 9.5 | 13.0 | 12.1 | 11.5 | –
4 | Ac-YGMLNP-NH2 [3b] | 0.9 | 1.0 | 0.8 | – | –
5 | Ac-SYSMEHFRWGKPV-NH2 (α-MSH) [8b] | 35.3 | 33.6 | 36.1 | 35.0 | higher than that observed for MSO
6 | Ac-MGDFQ-NH2 [1b] | 16.8 | 17.2 | 19.0 | 17.7 | –
7 | CS(=N)(=O)CC[C@H](N)C(=O)O (some centres unmarked) [MSO, methionine sulfoximine] | 18.1 | 18.8 | 19.2 | 18.7 | –
8 | Ac-MGRFTINP-NH2 [6b] | 28.6 | 26.2 | 24.1 | 26.3 | higher than that observed for MSO
9 | Ac-MGKFQ-NH2 [2b] | 29.2 | 28.6 | 33.0 | 30.3 | higher than that observed for MSO
